Data taken from patent publication US9969776B2, “Drug conjugates for delivering compounds to senescent cells” (Unity Biotechnology, Inc., priority 2007, dated 2018).
“Also recorded” adds a separate entry of the source. Read-outs that look alike come from different tables or passages of the source. Where no end group is shown, it is not given here.

Tests used:
normal fibroblasts = test: Cell binding assay with radio-labeled peptide
Protocol: (§1) A senescent cell binding agent (SEQ ID NO:1) was conjugated at its C terminus to the linker sequence GGGC (SEQ ID NO:9) by synthesizing both as a single construct (i.e., SenC; SEQ ID NO:5). The purpose of attaching GGGC was that it can be used to chelate reduced 99m-Tc for radio-labeling. A 2 μL aliquot of conjugated senescent cell binding agent (3 M) was mixed with 40 μL of 0.25 M ammonium acetate, 15 μL of tartrate buffer pH 8.7, 4 μL of stannous chloride in 100 mM of sodium tartrate, and 30 μL of 99m-Tc pertechnetate. The mixture was heated for 25 minutes at 95° C. Quality control was performed with Sep-Pak and was always above 90% purity. A small aliquot was also injected on a Waters 600 HPLC to check the radiological profile. Fractions were collected and read on a gamma counter (Perkin-Elmer Wallac Wizard 1470).
(§2) Binding of radio-labeled SenC (SEQ ID NO:5) to senescent and non-senescent cells was tested by competition with unlabeled SenC. Peptide solutions were prepared to contain 0 or 20 μM of unlabeled SenC, 15 nM radio-labeled SenC, and 0.2% BSA. Chemically-induced senescent fibroblasts, their non-senescent counterparts, and prostate epithelial cells were prepared as above, harvested, and centrifuged. The cell pellets were resuspended in fresh media without FBS, and cells were counted. Peptide solution containing 0 or 20 μM unlabeled SenC and constant concentrations of SenC and 10^5 senescent cells were combined in a final volume of 200 μL of PBS in Eppendorf tubes and incubated for 4 hours. Cells were pelleted by centrifuging at 2500 rpm for 2 minutes and washed twice with PBS and 0.2% BSA. Pellets were suspended in 5 μL PBS and transferred to 12×75 mm tubes for counting radioactivity using a gamma counter (Perkin-Elmer Wallac Wizard 1470).

senescent cells = test: Cell binding assay with radio-labeled peptide
Protocol: as §1, §2

prostate epithelium = test: Cell binding assay with radio-labeled peptide
Protocol: as §1, §2

[1] = 1×iv, mice; cited from earlier work
[2] = tested on: immortalized prostate epithelial cells; test: Cell Proliferation Assay WST-1; format: cell-based
Protocol: (§3) Cell proliferation was assayed using the Cell Proliferation Reagent WST-1 (Roche, Mannheim, Germany) by following the manufacturer's instructions.

[3] = tested on: non-senescent fibroblasts; test: Cell Proliferation Assay WST-1; format: cell-based
Protocol: as §3

senescent fibroblasts [4] = test: Cell Proliferation Assay WST-1; format: cell-based
Protocol: as §3

[5] = tested on: non-senescent fibroblasts; test: Cytotoxicity, LDH release (CytoTox-ONE); format: cell-based; conditions: 2 hours at 37° C.
senescent fibroblasts [6] = test: Cytotoxicity, LDH release (CytoTox-ONE); format: cell-based; conditions: 2 hours at 37° C.
[7] = tested on: prostate epithelial cells (RWPE-1); test: Cytotoxicity, LDH release (CytoTox-ONE); format: cell-based; conditions: immortalized prostate epithelial cells RWPE-1, 2 hours at 37° C.
[8] = cited from earlier work
[9] = absence of unlabeled peptide, 15 nM radio-labeled SenC, 4 hours
[10] = presence of 20 μM unlabeled SenC

## radio-labeled SenC: SenC (SEQ ID NO:5) radio-labeled with 99m-Tc chelated by GGGC (GVYHFAPLTPTPGGGC; also: 99mTc chelated by GGGC)
Normal fibroblasts
  specificity of binding (absence vs. presence of unlabeled SenC): nonspecific
Normal fibroblasts; [9]
  bound peptide, average: 0.08 % of added dose
Normal fibroblasts; [10]
  bound peptide, average: 0.09 % of added dose
Senescent cells
  specificity of binding (absence vs. presence of unlabeled SenC): specific binding
Senescent cells; [9]
  bound peptide, average: 0.32 % of added dose
Senescent cells; [10]
  bound peptide, average: 0.25 % of added dose
Prostate epithelium
  specificity of binding (absence vs. presence of unlabeled SenC): nonspecific
Prostate epithelium; [9]
  bound peptide, average: 0.06 % of added dose
Prostate epithelium; [10]
  bound peptide, average: 0.06 % of added dose

## CC[C@@]1(O)C(=O)OCc2c1cc1n(c2=O)Cc2cc3c(CN(C)C)c(O)ccc3nc2-1 [topotecan]
[1]
  LD1Omice: 75 mg/m^2

## GVYHFAPLTPTPGGGSKFAKFAKKFAKFAK (GVYHFAPLTPTPGGSKFAKFAKKFAKFAK) [SenL]
[2]
  cell proliferation (WST-1, metabolic activity): no change in cell proliferation; also recorded: no significant effect on metabolic activity
[3]
  cell proliferation (WST-1, metabolic activity): no change in cell proliferation; also recorded: no significant effect on metabolic activity
Senescent fibroblasts [4]
  cell proliferation (WST-1, metabolic activity): no change in cell proliferation; also recorded: no significant effect on metabolic activity
[5]
  cell death (percentage of cells killed): some cytotoxicity is observed
Senescent fibroblasts [6]
  cell death (percentage of cells killed): dose-dependent cell death at a significantly higher rate than either non-senescent fibroblasts or prostate epithelial cells
[7]
  cell death (percentage of cells killed): no cell death at all; also recorded: No cell death was observed

## CC[C@]1(O)C[C@@H]2CN(CCc3c([nH]c4ccccc34)[C@@](C(=O)OC)(c3cc4c(cc3OC)N(C)[C@H]3[C@@](O)(C(=O)OC)[C@H](OC(C)=O)[C@]5(CC)C=CCN6CC[C@]43[C@@H]65)C2)C1 [vinblastine]
[8]; escalating
  MTD: 3.3-11.1 mg/m^2
[8]; rarely to
  MTD: 18.5 mg/m^2
